Experiment [1] has as its system human SJSA-1 (osteosarcoma) xenograft. Put plainly: TGI PK/PD modelling, human SJSA-1 (osteosarcoma) xenograft rat. It is filed as in vivo. Conditions: human SJSA-1 xenograft rat; for Average concentration for tumor stasis: TGI PK/PD modelling. Here is the method: To further support the preferred dose for HDM201, compartmental PK modeling was used to estimate the individual average concentration per cycle for the 9 patients treated at 120 mg on regimen 1B (FIG. 15). For the majority of patients (7 out of 9), the estimated average drug concentrations per cycle were near or above the most conservative average tumor stasis concentration of ˜41 ng/mL per cycle determined from PKPD modeling of preclinical data (human SJSA-1 xenograft rat model).
Compartmental population PK modeling of NVP-HDM201 was used to estimate the individual average plasma concentration for Cycle 1 and to allow comparison with preclinical average concentration for tumor stasis derived by PK/PD tumor growth modeling. […] The dashed line at concentration of ≈19 ng/mL represents average tumor stasis determined from PK/PD modeling of preclinical data from a liposarcoma (HSAX2655) patient-derived xenograft rat model.
In general terms: Xenograft models place foreign cells or tissue in a host animal.

For the next experiment, the system named is Colon 26 tumors. The experiment can be described thus: Anti-tumor activity in Colon 26 syngeneic tumor model (8020 Colon 26-XEF). Format: in vivo, mouse. The method, then:
Time to endpoint. Balb/c mice were implanted with 2×10^5 Colon 26 cells subcutaneously. Mice were treated with HDM201 at 40 mg/kg×3 for every 3h po on Days 12, 19 and 26 post cell implant, and the aPD-1 antibody at 5 mg/kg ip on days 12, 15, 19, and 22. End point was defined as tumor volume equal or greater than 1000 mm^3. Log Rank, p<0.05.
FIG. 25: Individual Tumor Growth Curves (8020 Colon 26-XEF) Individual tumor growth curves. Balb/c mice were implanted with 2×10^5 Colon 26 cells subcutaneously. Mice were treated with HDM201 at 40 mg/kg×3 for every 3h po on Days 12, 19 and 26 post cell implant, and the aPD-1 antibody at 5 mg/kg ip on days 12, 15, 19, and 22. End point was defined as tumor volume equal to or greater than 1000 mm^3. The horizontal dashed line indicates the tumor endpoint tumor size (1000 mm^3).
Colon 26 cells were harvested at 80-95% confluence, washed, and re-suspended in cold PBS at a concentration of 2×10^6 cells/ml. Finally, 0.2×10^6 cells in a total volume of 100 μL were implanted subcutaneously (sc) into the upper right flank of naive Balb/c mice.
For Study 8020 Colon 26-XEF, animals were randomized and enrolled onto the study when tumor volumes reached a range of 27-60 mm^3 on day 10 post cell implantation. All treatments were initiated three days later on day 13. For the PD studies, animals were randomized when the mean tumor volume reached 100˜120 mm^3.
The designs of studies 7628 Colon 26-XPD, 8063 Colon 26-XPD and 8020 Colon 26-XEF including dose and schedule for treatment groups are summarized in Tables Ex3.2 to Ex3.4. Animals were weighed on dosing day(s) and the dosing volume was adjusted to body weight to 10 ml/kg. Tumor dimensions and body weights were recorded at the time of randomization and twice weekly thereafter for the study duration. The following data were collected after each day of data collection: incidence of mortality, individual and group average body weights, and individual and group average tumor volume.
Percent treatment/control (% T/C) and percent regression (% Reg) values were calculated using the following formulas, respectively:
% Reg=100×ΔT/Tinitial if ΔT<0 […]
A Kaplan-Meier survival analysis was performed to compare differences in time to endpoint (TTE). Mice were scored as achieving tumor endpoint once tumor volume exceeded 1000 mm^3 and scored as dead (“1”). […]
The anti-tumor activity of HDM201 with aPD1 antibody targeting the PD-1/PD-L1 axis was explored in the Colon 26 murine syngeneic model (8020 Colon 26-XEF). […] Tumor growth delay was assessed as median time to endpoint using the Kaplan-Meier analysis (GraphPad v7.0).

Regarding `COc1ncc(-c2nc3c(n2C(C)C)[C@H](c2ccc(Cl)cc2)N(c2cc(Cl)cn(C)c2=O)C3=O)c(OC)n1` [HDM201, (S)-5-(5-Chloro-1-methyl-2-oxo-1,2-dihydro-pyridin-3-yl)-6-(4-chloro-phenyl)-2-(2,4-dimethoxy-pyrimidin-5-yl)-1-isopropyl-5,6-dihydro-1H-pyrrolo[3,4-d]imidazol-4-one], the “Average concentration for tumor stasis” value is listed as roughly 41 ng/mL in experiment [1] and “≈ 41 ng/mL” in experiment [1] (listed as NVP-HDM201). The “average concentration for 95% tumor regression” value in experiment [1] was 120 ng/mL; in experiment [1] (listed as NVP-HDM201) it was 125 ng/mL. For the same compound, the “animals with partial response” value in the experiment on Colon 26 tumors (10 mice per group) is given as 1/10. Besides, the “complete tumor regression / complete responses (CR), animals” value in the experiment on Colon 26 tumors (10 mice per group, HDM201 40 mg/kg 3×q3h po weekly, aPD1 Ab 5 mg/kg ip) is given as “no CR”. Moreover, the tumor growth result in the experiment on Colon 26 tumors (HDM201 40 mg/kg) is given as “inhibited tumor growth”. For the same compound, the “median time to endpoint (TV≥1000 mm^3), Kaplan-Meier” value in the experiment on Colon 26 tumors (HDM201 40 mg/kg 3×q3h po weekly, aPD1 Ab 5 mg/kg ip, vehicle 23 days) was determined as 31.5 days.

These data come from patent US20210363254A1, “PHARMACEUTICAL COMBINATIONS” (Novartis AG, priority 2018, published 2021).
